Data: paper PMC4148593, “Activation of spleen cells by ArtinM may account for its immunomodulatory properties” (Cell and Tissue Research, 2014)

Target: T1, rArtinM (recombinant ArtinM) (Artocarpus heterophyllus, UniProt Q2VPW4)
T1 construct: recombinant, expressed in E. coli BL21; monomer
T1 sequence (Q2VPW4 2-150): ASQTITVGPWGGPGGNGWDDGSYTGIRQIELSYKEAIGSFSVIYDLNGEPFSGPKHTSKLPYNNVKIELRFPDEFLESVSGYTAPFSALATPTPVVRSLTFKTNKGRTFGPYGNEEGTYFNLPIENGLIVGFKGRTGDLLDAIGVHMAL
Assay: MTT assay, inhibition of lectin-induced mitochondrial activity of murine spleen cells
Type: cell-based
Conditions: read-out: % inhibition at 50 mM

inhibition at 50000 µM: 80%
SMILES: OC[C@H]1OC(O)[C@@H](O)[C@@H](O)[C@@H]1O (stereo partly drawn) [D-mannose]
